According to patent US4464378A, “Method of administering narcotic antagonists and analgesics and novel dosage forms containing same” (University of Kentucky Research Foundation, priority 1981, dated 1984):

How the values were obtained:
in vivo = conditions: rat, plasma, 0.03 mg; for AUC(0-inf): Area under the blood level curve (AUC ^.infin.0); for AUC(0-inf) / concentration at 1 min / concentration at 0.05 h / concentration at 10 min / concentration at 20 min / concentration at 0.5 h / concentration at 0.75 h / concentration at 1 h / concentration at […] / concentration at 2 h / concentration at 3 h / concentration at 5 min: 30 μg/rat; for concentration at 1 min / concentration at 0.05 h / concentration at 10 min / concentration at 20 min / concentration at 0.5 h / concentration at 0.75 h / concentration at 1 h / concentration at […] / concentration at 2 h / concentration at 3 h / concentration at 5 min: Plasma Level; for concentration at 0.05 h: 3 min; for concentration at 0.5 h: 30 min; for concentration at 0.75 h: 45 min; for concentration at 1 h: 60 min; for concentration at […]: 90 min; for concentration at 2 h: 120 min; for concentration at 3 h: 180 min
[1] = 30 μg/rat
[2] = nasal, individual rats I, II, III
[3] = po, Mean, oral (intraduodenal), mean of 3 rats

C=CCN1CC[C@]23c4c5ccc(O)c4O[C@H]2C(=O)CC[C@@]3(O)[C@H]1C5 [naloxone]
Tmax (in vivo): ~5 min | bioavailability (in vivo): 1.5% | half-life (in vivo): 52.1 min | AUC(0-inf) (in vivo; Mean, nasal, mean of 3 rats): 25.3 ng·h/mL | AUC(0-inf) (in vivo; [2]): 31.7 ng·h/mL | concentration at 1 min (in vivo; Mean, nasal, mean of 3 rats): 23.3 ng/mL | concentration at 0.05 h (in vivo; Mean, nasal, mean of 3 rats): 38.3 ng/mL | concentration at 10 min (in vivo; Mean, nasal, mean of 3 rats): 36 ng/mL | concentration at 20 min (in vivo; Mean, nasal, mean of 3 rats): 19.5 ng/mL | concentration at 0.5 h (in vivo; Mean, nasal, mean of 3 rats): 12 ng/mL | concentration at 0.75 h (in vivo; Mean, nasal, mean of 3 rats): 7.96 ng/mL | concentration at 1 h (in vivo; Mean, nasal, mean of 3 rats): 6.41 ng/mL | concentration at […] (in vivo; Mean, nasal, mean of 3 rats): 3.58 ng/mL | concentration at 2 h (in vivo; Mean, nasal, mean of 3 rats): 2.59 ng/mL | concentration at 3 h (in vivo; Mean, nasal, mean of 3 rats): 1.42 ng/mL | concentration at 0.05 h (in vivo; [2]): 41.2 ng/mL | concentration at 5 min (in vivo; [2]): 54.5 ng/mL | concentration at 10 min (in vivo; [2]): 45.3 ng/mL | concentration at 20 min (in vivo; [2]): 22.7 ng/mL | concentration at 0.5 h (in vivo; [2]): 13.5 ng/mL | concentration at 0.75 h (in vivo; [2]): 9.36 ng/mL | concentration at 1 h (in vivo; [2]): 8.26 ng/mL | concentration at […] (in vivo; [2]): 4.79 ng/mL | concentration at 2 h (in vivo; [2]): 3.65 ng/mL | concentration at 3 h (in vivo; [2]): 1.95 ng/mL | half-life (in vivo; iv): 59.2 min | AUC(0-inf) (in vivo; iv, individual rats I, II, III): 21.2 ng·h/mL | AUC(0-inf) (in vivo; iv, Mean, mean of 3 rats): 25 ng·h/mL | concentration at 1 min (in vivo; iv, individual rats I, II, III): 102 ng/mL | concentration at 0.05 h (in vivo; iv, individual rats I, II, III): 52.3 ng/mL | concentration at 5 min (in vivo; iv, individual rats I, II, III): 31.4 ng/mL | concentration at 10 min (in vivo; iv, individual rats I, II, III): 15.6 ng/mL | concentration at 20 min (in vivo; iv, individual rats I, II, III): 10.3 ng/mL | concentration at 0.5 h (in vivo; iv, individual rats I, II, III): 7.28 ng/mL | concentration at 0.75 h (in vivo; iv, individual rats I, II, III): 5.47 ng/mL | concentration at 1 h (in vivo; iv, individual rats I, II, III): 4.87 ng/mL | concentration at […] (in vivo; iv, individual rats I, II, III): 3.01 ng/mL | concentration at 2 h (in vivo; iv, individual rats I, II, III): 2.15 ng/mL | concentration at 3 h (in vivo; iv, individual rats I, II, III): 1.25 ng/mL | concentration at 1 min (in vivo; iv, Mean, mean of 3 rats): 111 ng/mL | concentration at 0.05 h (in vivo; iv, Mean, mean of 3 rats): 58 ng/mL | concentration at 5 min (in vivo; iv, Mean, mean of 3 rats): 37.5 ng/mL | concentration at 10 min (in vivo; iv, Mean, mean of 3 rats): 19.6 ng/mL | concentration at 20 min (in vivo; iv, Mean, mean of 3 rats): 11.6 ng/mL | concentration at 0.5 h (in vivo; iv, Mean, mean of 3 rats): 8.34 ng/mL | concentration at 0.75 h (in vivo; iv, Mean, mean of 3 rats): 6.74 ng/mL | concentration at 1 h (in vivo; iv, Mean, mean of 3 rats): 5.41 ng/mL | concentration at […] (in vivo; iv, Mean, mean of 3 rats): 3.96 ng/mL | concentration at 2 h (in vivo; iv, Mean, mean of 3 rats): 2.86 ng/mL | concentration at 3 h (in vivo; iv, Mean, mean of 3 rats): 1.47 ng/mL | AUC(0-inf) (in vivo; [3]): 0.367 ng·h/mL | concentration at 5 min (in vivo; [3]): 0.37 ng/mL | concentration at 10 min (in vivo; [3]): 0.34 ng/mL | concentration at 0.75 h (in vivo; [3]): 0.11 ng/mL | concentration at 1 h (in vivo; [3]): 0.09 ng/mL | concentration at 2 h (in vivo; [3]): 0.06 ng/mL | absorption via the nasal route compared with the intravenous route ([1]; nasal vs intravenous): as effective as via the intravenous route | areas under the curve following intravenous and nasal administration, compared ([1]; nasal vs intravenous): not significantly different | bioavailability when administered nasally compared with intravenously ([1]; nasal vs intravenous): equivalent to the bioavailability of the drug when administered intravenously | half-life of elimination after nasal administration compared with intravenous ([1]; nasal vs intravenous): comparable to its half-life following intravenous nasal administration | bioavailability when administered nasally compared with the oral route ([1]; nasal vs oral): vastly superior to its bioavailability by the oral route | absorption from the nasal mucosa ([1]; nasal): very rapidly absorbed from the nasal mucosa | absorption from the nasal mucosa into the systemic circulation; intestinal or first pass metabolism ([1]; nasal): rapidly absorbed from the nasal mucosa into the systemic circulation without extensive intestinal or first pass metabolism
